≈ marks a conversion by molar mass, not a printed value. Where “and” joins values, the source holds several entries; their conditions need not be identical. Identical values can stand only once.
Columns and labels:
wt SpsB [1] = biological target: T1, wt SpsB (Staphylococcus aureus, UniProt P0A070); test: FRET-based signal peptidase assay with membrane-bound SpsB (wt); format: biochemical, S. aureus
T1 construct: recombinantly expressed full-length S. aureus SpsB (wt) or mutants; made in house; host or cells: E. coli BL21(DE3)pLysS, membrane fraction
Procedure: For preparation of E. coli membrane fractions harboring overexpressed S. aureus SpsB, E. coli BL21(DE3) pLysS cells harboring pET-55-DEST-fl-SpsB or respective mutant plasmids (F67A, Y75A, F158A, Q165A, F67A-Y75A, F67A-F158A, Y75A-F158A, F67A-Y75A-F158A) were grown in LB medium (supplemented with Ampicillin (100 µg/mL) and Chloramphenicol (34 µg/mL)) at 37°C (200 rpm) to OD600 ≈ 0.6 and protein overexpression was induced by the addition of isopropyl-1-thio-β-galactopyranoside (IPTG, 0.5 mM). After incubation (22 °C, 200 rpm, 3 h), cells were harvested by centrifugation (6000 × g, 4 °C, 10 min) and subsequently washed with PBS. The cell pellet was resuspended in 5 mL Tris-HCl buffer (50 mM, pH = 7.5) and lysed using a bead beater homogenizer (3 cycles: 5500 rpm for 45 s, 30 s cooling; Precellys Ceramic Kit CK01L, 7.0 mL tubes; Precellys 24 Homogenizer, Bertin Technologies). The lysate was centrifuged (12,000 × g, 4 °C, 10 min) to remove intact cells and debris. Membranes were collected from supernatant (39,000 × g, 4 °C, 75 min) and resuspended in ice-cold sodium phosphate buffer (50 mM, pH 7.5). Protein concentration was measured using the Pierce BCA Protein assay kit (Thermo Fisher Scientific, Pierce Biotechnology) and snap-frozen aliquots were stored at −80 °C.
Signal cleavage activities of recombinantly expressed full-length S. aureus SpsB (wt) or mutants (F67A, Y75A, F158A, Q165A, F67A-Y75A, F67A-F158A, Y75A-F158A, F67A-Y75A-F158A) in E. coli membranes were measured using a Förster Resonance Energy Transfer (FRET) assay as previously described[20],[36].
A synthetic peptide substrate based on SceD modified by 4-(4- dimethylaminophenylazo)benzoic (DABCYL) acid and 5-((2-aminoethyl)amino)-1- naphthalenesulfonic acid (EDANS) was used (DABCYL-[…]-EDANS, AnaSpec) as FRET substrate. Assays were performed with overexpressed wildtype SpsB (wt) or mutant (F67A, Y75A, F158A, Q165A, F67A-Y75A, F67A-F158A, Y75A-F158A, F67A-Y75A-F158A) in E. coli membranes. As controls for background activity, respective E. coli membranes without IPTG induction were used (see Experimental procedure “Preparation of E. coli membrane (control) fractions. Membranes containing recombinant wildtype SpsB or mutant (50 µg/mL membrane concentration, 100 µL/well final volume, sodium phosphate buffer, 50 mM, pH 7.5, addition of detergent if indicated; final concentrations in buffer: 0.1% CHAPS, 0.001% NP-40 or 0.1% Tween) were pre-treated with PK150, Arylomycin A4 or DMSO as a control (final concentration 1%) at 37 °C for 5 min. After addition of FRET substrate (10 µM final substrate concentration; final DMF concentration from substrate stock 1%), fluorescence turnover was monitored by an Infinite™ M Nano Tecan 200Pro reader (340 nm excitation and 510 nm emission wavelengths, fluorescence top reading mode) at 37 °C for at least 2 h.
The assay was performed in technical triplicates for at least three biologically independent experiments (n ≥ 3). Significance of cleavage activity was determined via a two-tailed Students t-test for comparison of membranes treated with DMSO to PK150.

SpsB Q165A mutant = biological target: T2, SpsB Q165A mutant (Staphylococcus aureus, UniProt P0A070, Q165A); test: FRET-based signal peptidase assay with membrane-bound SpsB, Q165A mutant; format: biochemical, S. aureus; details: 10 µM; relative to DMSO
T2 construct: recombinantly expressed full-length S. aureus SpsB (wt) or mutants; made in house; host or cells: E. coli BL21(DE3)pLysS, membrane fraction
T2 sequence (P0A070 1-191 Q165A): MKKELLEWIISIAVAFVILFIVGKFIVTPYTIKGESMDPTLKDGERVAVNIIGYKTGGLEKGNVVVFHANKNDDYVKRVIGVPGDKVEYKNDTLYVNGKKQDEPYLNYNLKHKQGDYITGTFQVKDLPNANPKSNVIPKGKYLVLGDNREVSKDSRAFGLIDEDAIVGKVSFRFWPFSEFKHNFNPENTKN
Procedure: Cloning of full-length SpsB (fl-SpsB) was performed using the Invitrogen Gateway Technology in previous works by Le et al.. fl-SpsB was cloned into the destination vector pET-55-DEST (Novagen) and transformed into chemically competent E. coli BL21(DE3)pLysS cells (Promega) to prevent leaky protein overexpression. Plasmid DNA of wildtype SpsB pET-55-DEST-fl-SpsB was purified using a plasmid Miniprep Kit (peqGOLD Plasmid Miniprep Kit II, VWR Peqlab) according to the manufacturer’s instructions and used as template for all single point mutations (F67A, Y75A, F158A, Q165A). […]
For preparation of E. coli membrane fractions harboring overexpressed S. aureus SpsB, E. coli BL21(DE3) pLysS cells harboring pET-55-DEST-fl-SpsB or respective mutant plasmids (F67A, Y75A, F158A, Q165A, F67A-Y75A, F67A-F158A, Y75A-F158A, F67A-Y75A-F158A) were grown in LB medium (supplemented with Ampicillin (100 µg/mL) and Chloramphenicol (34 µg/mL)) at 37°C (200 rpm) to OD600 ≈ 0.6 and protein overexpression was induced by the addition of isopropyl-1-thio-β-galactopyranoside (IPTG, 0.5 mM). […] Protein concentration was measured using the Pierce BCA Protein assay kit (Thermo Fisher Scientific, Pierce Biotechnology) and snap-frozen aliquots were stored at −80 °C. […]

wt SpsB [2] = biological target: T1, wt SpsB; details: cited from earlier work
S. aureus NCTC 8325 = system: S. aureus NCTC 8325; design: method as in Le et al., Nat Chem. 2020; details: ref Le et al., Nat Chem. 2020; cited from earlier work

Structure (SMILES) | allosteric stimulation of SpsB activity (wt SpsB [1]; 10 µM in E. coli induced SpsB membranes) | elevated activity in wildtype SpsB (wt SpsB [1]; 10 µM, relative to DMSO) | activation of wt SpsB in presence of detergents (wt SpsB [1]; 0.01% Tween, 0.001% NP-40, 0.1% CHAPS (<cmc), PK150 10 µM) | activity at 0.195 µM (wt SpsB [1]; PK150 0.195uM, replicates, read-out: wt PK150 (normalized activity)) | activity at 0.39 µM (wt SpsB [1]; PK150 0.39uM, replicates, read-out: wt PK150 (normalized activity)) | activity at 1.5625 µM (wt SpsB [1]; PK150 1.5625uM, replicates, read-out: wt PK150 (normalized activity)) | wt PK150 10 µM norm. value (wt SpsB [1]; PK150 10 µM, substrate cleavage rate normalized to DMSO (100), single biological replicates) | overactivation at higher compound concentrations (wt SpsB [1]; higher compound concentrations (Figure 3a)) | elevated activity in Q165A mutant (SpsB Q165A mutant) | overactivation compared to DMSO (wt SpsB [2]; 50 µM compound concentration, ref Le et al., Nat Chem. 2020) | overactivation of SpsB (wt SpsB [2]) | MIC (S. aureus NCTC 8325)
O=C(Nc1ccc2c(c1)OC(F)(F)O2)Nc1ccc(Cl)c(C(F)(F)F)c1 [PK150, (4-Chloro-3-(trifluoromethyl)phenyl)-3-(2,2-difluorobenzo[d][1,3]dioxol-5-yl)urea] | 170% | 1.7 fold | Activation of wt SpsB with PK150 could still be shown for all detergents | 111% | 127% | 131% | 153.034 and 181.137 and 173.665 and 173.73 and 163.958 and 182.132 | up to 250% | 1.7 fold | 250% | up to 3 fold | 0.3 µM (≈ 0.118 µg/mL)
C#CCCC1(CCOC(=O)c2ccc(NC(=O)Nc3ccc(Cl)c(C(F)(F)F)c3)cc2)N=N1 [PK150-P, 2-(3-(But-3-inyl)-3H-diazirin-3-yl)ethyl4-(3-(4-Chloro-3trifluoromethylphenyl)ureido) benzoate] |  |  |  |  |  |  |  |  |  |  |  | 1.0 µM (≈ 0.479 µg/mL)

— PMC11266668, “Unraveling the mechanism of small molecule induced activation of Staphylococcus aureus signal peptidase IB” (Communications Biology, 2024)
